Assay results as given in ChEMBL document CHEMBL1201861, “Genomics of Drug Sensitity in Cancer screening data, Wellcome Trust Sanger Institute”.
pIC50: −log10 of the molar value.

Test system: Lu-65;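 further: growth inhibition of Lu-65 cancer cells, read out by a cell viability assay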
Test: cells
Format: functional, cell-based, Homo sapiens
Conditions: Homo sapiens, Lu-65
Description: SANGER: Inhibition of human LU-65 cell growth in a cell viability assay.

SMILES | pIC50
CC[C@H](CO)Nc1nc(NCc2ccccc2)c2ncn(C(C)C)c2n1 [SELICICLIB] | < 4.80

Test system: SBC-1;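 further: cell viability assay measuring growth inhibition of the SBC-1 cell line, IC50 being the concentration that halves growth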
Test: cells
Format: functional, cell-based, Homo sapiens
Conditions: Homo sapiens, SBC-1
Description: SANGER: Inhibition of human SBC-1 cell growth in a cell viability assay.

SMILES | pIC50
CC[C@H](CO)Nc1nc(NCc2ccccc2)c2ncn(C(C)C)c2n1 [SELICICLIB] | < 4.80

Test system: KY821;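 further: growth inhibition of human KY821 cells, read out by a cell viability assay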
Test: cells
Format: functional, cell-based, Homo sapiens
Conditions: Homo sapiens, KY821
Description: SANGER: Inhibition of human KY821 cell growth in a cell viability assay.

SMILES | pIC50
CC[C@H](CO)Nc1nc(NCc2ccccc2)c2ncn(C(C)C)c2n1 [SELICICLIB] | < 4.80
CCN(CC)CCNC(=O)c1c(C)[nH]c(/C=C2\C(=O)Nc3ccc(F)cc32)c1C [SUNITINIB] | 5.55

Test system: KU812 cell line;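 further: growth inhibition of KU812 cells, read out with a cell viability assay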
Test: cells
Format: functional, cell-based, Homo sapiens
Conditions: Homo sapiens, KU812
Description: SANGER: Inhibition of human KU812 cell growth in a cell viability assay.

SMILES | pIC50
CC[C@H](CO)Nc1nc(NCc2ccccc2)c2ncn(C(C)C)c2n1 [SELICICLIB] | < 4.80
CCN(CC)CCNC(=O)c1c(C)[nH]c(/C=C2\C(=O)Nc3ccc(F)cc32)c1C [SUNITINIB] | 5.17

Test system: HOP-62
Test: cells
Format: functional, cell-based, Homo sapiens
Conditions: Homo sapiens, HOP-62
Description: SANGER: Inhibition of human HOP-62 cell growth in a cell viability assay.

SMILES | pIC50
CC[C@H](CO)Nc1nc(NCc2ccccc2)c2ncn(C(C)C)c2n1 [SELICICLIB] | < 4.80
CCN(CC)CCNC(=O)c1c(C)[nH]c(/C=C2\C(=O)Nc3ccc(F)cc32)c1C [SUNITINIB] | 5.36

Test system: OCI-AML2;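 further: growth inhibition of OCI-AML2 cells, read out with a cell viability assay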
Test: cells
Format: functional, cell-based, Homo sapiens
Conditions: Homo sapiens, OCI-AML2
Description: SANGER: Inhibition of human OCI-AML2 cell growth in a cell viability assay.

SMILES | pIC50
CC[C@H](CO)Nc1nc(NCc2ccccc2)c2ncn(C(C)C)c2n1 [SELICICLIB] | 4.81
CCN(CC)CCNC(=O)c1c(C)[nH]c(/C=C2\C(=O)Nc3ccc(F)cc32)c1C [SUNITINIB] | 5.86

Test system: U-698-M
Test: cells
Format: functional, cell-based, Homo sapiens
Conditions: Homo sapiens, U-698-M
Description: SANGER: Inhibition of human U-698-M cell growth in a cell viability assay.

SMILES | pIC50
CC[C@H](CO)Nc1nc(NCc2ccccc2)c2ncn(C(C)C)c2n1 [SELICICLIB] | < 4.80

Test system: TE-441-T
Test: cells
Format: functional, cell-based, Homo sapiens
Conditions: Homo sapiens, TE-441-T
Description: SANGER: Inhibition of human TE-441-T cell growth in a cell viability assay.

SMILES | pIC50
CC[C@H](CO)Nc1nc(NCc2ccccc2)c2ncn(C(C)C)c2n1 [SELICICLIB] | < 4.80

Test system: GI-ME-N;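 further: growth inhibition of human GI-ME-N cells, read out with a cell viability assay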
Test: cells
Format: functional, cell-based, Homo sapiens
Conditions: Homo sapiens, GI-ME-N
Description: SANGER: Inhibition of human GI-ME-N cell growth in a cell viability assay.

SMILES | pIC50
CC[C@H](CO)Nc1nc(NCc2ccccc2)c2ncn(C(C)C)c2n1 [SELICICLIB] | < 4.80

Test system: NCI-H1581;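 further: cell growth inhibition read out by a viability assay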
Test: cells
Format: functional, cell-based, Homo sapiens
Conditions: Homo sapiens, NCI-H1581
Description: SANGER: Inhibition of human NCI-H1581 cell growth in a cell viability assay.

SMILES | pIC50
CC[C@H](CO)Nc1nc(NCc2ccccc2)c2ncn(C(C)C)c2n1 [SELICICLIB] | < 4.80

Test system: CTB-1
Test: cells
Format: functional, cell-based, Homo sapiens
Conditions: Homo sapiens, CTB-1
Description: SANGER: Inhibition of human CTB-1 cell growth in a cell viability assay.

SMILES | pIC50
CC[C@H](CO)Nc1nc(NCc2ccccc2)c2ncn(C(C)C)c2n1 [SELICICLIB] | < 4.80

Test system: NB13;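 further: cell viability readout measuring growth inhibition of human NB13 cells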
Test: cells
Format: functional, cell-based, Homo sapiens
Conditions: Homo sapiens, NB13
Description: SANGER: Inhibition of human NB13 cell growth in a cell viability assay.

SMILES | pIC50
CC[C@H](CO)Nc1nc(NCc2ccccc2)c2ncn(C(C)C)c2n1 [SELICICLIB] | < 4.80

Test system: MZ2-MEL;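 further: growth inhibition of MZ2-MEL cells read out with a cell viability assay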
Test: cells
Format: functional, cell-based, Homo sapiens
Conditions: Homo sapiens, MZ2-MEL
Description: SANGER: Inhibition of human MZ2-MEL cell growth in a cell viability assay.

SMILES | pIC50
CC[C@H](CO)Nc1nc(NCc2ccccc2)c2ncn(C(C)C)c2n1 [SELICICLIB] | < 4.80

Test system: D-336MG
Test: cells
Format: functional, cell-based, Homo sapiens
Conditions: Homo sapiens, D-336MG
Description: SANGER: Inhibition of human D-336MG cell growth in a cell viability assay.

SMILES | pIC50
CC[C@H](CO)Nc1nc(NCc2ccccc2)c2ncn(C(C)C)c2n1 [SELICICLIB] | < 4.80

Test system: RPMI 8402
Test: SANGER: Inhibition of human RPMI-8402 cell growth in a cell viability assay.
Format: functional, cell-based
Conditions: Homo sapiens, RPMI 8402

SMILES | pIC50
CC[C@H](CO)Nc1nc(NCc2ccccc2)c2ncn(C(C)C)c2n1 [SELICICLIB] | 4.87

Same assay, conditions: Homo sapiens, RPMI 8402; read-out: IC50

SMILES | pIC50
CCN(CC)CCNC(=O)c1c(C)[nH]c(/C=C2\C(=O)Nc3ccc(F)cc32)c1C [SUNITINIB] | 5.63

Test system: BC-3;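 further: cell viability assay measuring growth inhibition of human BC-3 cells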
Test: cells
Format: functional, cell-based, Homo sapiens
Conditions: Homo sapiens, BC-3
Description: SANGER: Inhibition of human BC-3 cell growth in a cell viability assay.

SMILES | pIC50
CC[C@H](CO)Nc1nc(NCc2ccccc2)c2ncn(C(C)C)c2n1 [SELICICLIB] | < 4.80

Test system: D-392MG
Test: cells
Format: functional, cell-based, Homo sapiens
Conditions: Homo sapiens, D-392MG

SMILES | pIC50
CC[C@H](CO)Nc1nc(NCc2ccccc2)c2ncn(C(C)C)c2n1 [SELICICLIB] | < 4.80

Test system: KARPAS-299
Test: cells
Format: functional, cell-based, Homo sapiens
Conditions: Homo sapiens, KARPAS-299
Description: SANGER: Inhibition of human KARPAS-299 cell growth in a cell viability assay.

SMILES | pIC50
CC[C@H](CO)Nc1nc(NCc2ccccc2)c2ncn(C(C)C)c2n1 [SELICICLIB] | < 4.80
CCN(CC)CCNC(=O)c1c(C)[nH]c(/C=C2\C(=O)Nc3ccc(F)cc32)c1C [SUNITINIB] | 5.68

Test system: NCI-H716;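 further: growth inhibition of human NCI-H716 cells, measured by a cell viability assay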
Test: cells
Format: functional, cell-based, Homo sapiens
Conditions: Homo sapiens, NCI-H716
Description: SANGER: Inhibition of human NCI-H716 cell growth in a cell viability assay.

SMILES | pIC50
CC[C@H](CO)Nc1nc(NCc2ccccc2)c2ncn(C(C)C)c2n1 [SELICICLIB] | < 4.80

Test system: MC-CAR;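 further: growth inhibition of the human MC-CAR cell line, read out by a cell viability assay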
Test: cells
Format: functional, cell-based, Homo sapiens
Conditions: Homo sapiens, MC-CAR
Description: SANGER: Inhibition of human MC-CAR cell growth in a cell viability assay.

SMILES | pIC50
CC[C@H](CO)Nc1nc(NCc2ccccc2)c2ncn(C(C)C)c2n1 [SELICICLIB] | < 4.80

Test system: NCI-H1304;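 further: growth inhibition of the cancer cell line, measured in a cell viability assay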
Test: cells
Format: functional, cell-based, Homo sapiens
Conditions: Homo sapiens, NCI-H1304
Description: SANGER: Inhibition of human NCI-H1304 cell growth in a cell viability assay.

SMILES | pIC50
CC[C@H](CO)Nc1nc(NCc2ccccc2)c2ncn(C(C)C)c2n1 [SELICICLIB] | < 4.80

Test system: TE-1;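 further: growth inhibition of the human TE-1 cell line, read out with a cell viability assay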
Test: cells
Format: functional, cell-based, Homo sapiens
Conditions: Homo sapiens, TE-1
Description: SANGER: Inhibition of human TE-1 cell growth in a cell viability assay.

SMILES | pIC50
CC[C@H](CO)Nc1nc(NCc2ccccc2)c2ncn(C(C)C)c2n1 [SELICICLIB] | < 4.80

Test system: GAK
Test: cells
Format: functional, cell-based, Homo sapiens
Conditions: Homo sapiens, GAK

SMILES | pIC50
CCN(CC)CCNC(=O)c1c(C)[nH]c(/C=C2\C(=O)Nc3ccc(F)cc32)c1C [SUNITINIB] | […]

Test system: ST486
Test: SANGER: Inhibition of human ST486 cell growth in a cell viability assay.
Format: functional, cell-based
Conditions: Homo sapiens, ST486

SMILES | pIC50
CC[C@H](CO)Nc1nc(NCc2ccccc2)c2ncn(C(C)C)c2n1 [SELICICLIB] | 4.99
CCN(CC)CCNC(=O)c1c(C)[nH]c(/C=C2\C(=O)Nc3ccc(F)cc32)c1C [SUNITINIB] | 5.20

Test system: LOX IMVI
Test: cells
Format: functional, cell-based, Homo sapiens
Conditions: Homo sapiens, LOX IMVI
Description: SANGER: Inhibition of human LOXIMVI cell growth in a cell viability assay.

SMILES | pIC50
CC[C@H](CO)Nc1nc(NCc2ccccc2)c2ncn(C(C)C)c2n1 [SELICICLIB] | < 4.80
